Experiments:
EstA = target: T1, EstA (Clostridium botulinum, UniProt A5I055)
T1 construct: gene lipA

aAbPPO4 = target: T2, aAbPPO4 (Agaricus bisporus, UniProt C7FF05); experiment: activity on dopamine after pre-incubation and ultrafiltration, […] nm; format: biochemical
T2 construct: gene PPO4; N-terminal GST tag cleaved off with HRV 3C; expressed in E. coli BL21(DE3)
T2 sequence (C7FF05 1-379): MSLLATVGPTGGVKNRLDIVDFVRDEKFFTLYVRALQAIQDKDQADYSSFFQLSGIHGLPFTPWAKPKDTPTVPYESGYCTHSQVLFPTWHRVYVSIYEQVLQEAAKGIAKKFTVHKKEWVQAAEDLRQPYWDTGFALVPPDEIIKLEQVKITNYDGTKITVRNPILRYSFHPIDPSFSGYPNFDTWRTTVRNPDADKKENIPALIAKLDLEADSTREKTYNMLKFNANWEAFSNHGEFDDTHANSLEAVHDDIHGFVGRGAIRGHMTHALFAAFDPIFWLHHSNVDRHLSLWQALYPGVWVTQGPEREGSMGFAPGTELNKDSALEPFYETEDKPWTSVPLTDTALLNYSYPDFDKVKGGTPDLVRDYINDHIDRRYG

T1 sequence (A5I055 1-480): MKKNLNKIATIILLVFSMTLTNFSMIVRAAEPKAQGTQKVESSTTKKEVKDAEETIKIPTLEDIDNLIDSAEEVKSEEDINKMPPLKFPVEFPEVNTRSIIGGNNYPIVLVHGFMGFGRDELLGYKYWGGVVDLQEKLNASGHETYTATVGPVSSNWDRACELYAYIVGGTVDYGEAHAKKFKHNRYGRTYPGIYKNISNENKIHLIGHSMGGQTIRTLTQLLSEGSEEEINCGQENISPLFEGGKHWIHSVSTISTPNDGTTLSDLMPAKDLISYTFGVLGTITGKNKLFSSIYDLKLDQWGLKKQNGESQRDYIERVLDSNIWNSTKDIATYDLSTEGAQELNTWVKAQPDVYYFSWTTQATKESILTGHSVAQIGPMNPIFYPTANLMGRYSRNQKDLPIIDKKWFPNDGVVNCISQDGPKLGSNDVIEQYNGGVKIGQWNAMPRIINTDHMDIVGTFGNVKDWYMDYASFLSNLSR

SMILES | photometric, 4-nitrophenol release at 405 nm (EstA) | activity on dopamine after pre-incubation and ultrafiltration, 475 nm (aAbPPO4)
CCCC(=O)Oc1ccc([N+](=O)[O-])cc1 [para-nitrophenyl butyrate] | on the model substrate para-nitrophenyl butyrate (pNPB) compared to the uncleaved enzyme | 
O=S(O)O [sodium bisulphite] |  | the loss of PPO activity of aAbPPO4 was verified by an activity assay with dopamine
